Assay results: PubChem BioAssay (NCI)
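Grown in 96-well plates, cells were treated for 48 hours with each compound at five concentrations. Insufficient inhibition: endpoint recorded as highest concentration tested. Here, GI50 denotes the concentration required for 50% inhibition of growth. TGI is the concentration that stops growth completely.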 Where a SMILES comes first, the peptide text is derived from it. The star is where a group is joined. Boc = CC(C)(C)OC(=O)*

Tests used:
Experiment in all cases: inhibition of tumour cell growth, NCI panel, 48 h
BT-549 breast = tested on: BT-549 breast
CAKI-1 renal = tested on: CAKI-1 renal
COLO 205 colon = tested on: COLO 205 colon
IGROV1 ovarian = tested on: IGROV1 ovarian
MDA-N = tested on: MDA-N
SF-295 CNS = tested on: SF-295 CNS
SN12C renal = tested on: SN12C renal
UACC-62 melanoma = tested on: UACC-62 melanoma
LOX IMVI melanoma = tested on: LOX IMVI melanoma
SF-539 CNS = tested on: SF-539 CNS
HL-60(TB) leukemia = tested on: HL-60(TB) leukemia

Compound | TGI (BT-549 breast) [µM] | TGI (CAKI-1 renal) [µM] | TGI (COLO 205 colon) [µM] | TGI (IGROV1 ovarian) [µM] | TGI (MDA-N) [µM] | TGI (SF-295 CNS) [µM] | TGI (SN12C renal) [µM] | TGI (UACC-62 melanoma) [µM] | TGI (LOX IMVI melanoma) [µM] | TGI (SF-539 CNS) [µM] | TGI (HL-60(TB) leukemia) [µM] | GI50 (CAKI-1 renal) [µM] | GI50 (HL-60(TB) leukemia) [µM] | GI50 (IGROV1 ovarian) [µM] | GI50 (LOX IMVI melanoma) [µM] | GI50 (SF-539 CNS) [µM] | GI50 (UACC-62 melanoma) [µM]
Clc1ccc(OCc2nnc(CCCCCCCCc3nnc(COc4ccc(Cl)cc4Cl)o3)o2)c(Cl)c1 | > 100 | 53.4 | > 100 | > 100 | > 100 | > 100 | > 100 | > 100 |  |  |  |  |  |  |  |  | 
CCOC(=O)/C=C(/C(=O)OCC)n1cc(C)c(=O)n(Cc2cnnn2CCCCOC(C)=O)c1=O | 24.3 | 21.4 | 56.7 | 38.3 | > 100 | > 100 | > 100 | 57.7 | 41 | 32.9 |  |  |  |  |  |  | 
CC(=O)C(=C(I)I)c1ccccc1 |  | 3.66 | 28.9 | 54.7 | 39.9 | 50.1 | 28.4 | 51.4 | 49.1 | 38.9 | 48.2 |  |  |  |  |  | 
O=C1CSC2(CCN(CCCN3c4ccccc4Sc4ccc(Cl)cc43)CC2)N1 | 26.1 | 25 | 22.5 | 20.8 | 23.6 | 22 | 22.7 | 23.7 | 16.6 | 26.4 |  |  |  |  |  |  | 
C=C(Br)CN(C#N)CC(=C)Br |  | > 100 | > 100 | > 100 | > 100 | > 100 | > 100 | > 100 | > 100 | > 100 | > 100 |  |  |  |  |  | 
CCCCNC(=S)Nc1nc(C(=O)NNS(=O)(=O)c2ccccc2)cs1 | 70.8 | 69.5 | 38.6 | > 100 |  | > 100 | 62.5 | 59.2 | 39.2 | > 100 |  |  |  |  |  |  | 
NS(=O)(=O)c1ccc(/C=C/c2cccc(O)c2)cc1 |  | > 100 | 45.9 | > 100 | > 100 | > 100 | > 100 | 50.4 | > 100 | > 100 | > 100 | 50.2 | 41.4 | 30.2 | 43 | 36.7 | 18.6
CN(C)Cc1cc(C(=O)/C=C/c2ccc(/C=C/C(=O)c3cc(CN(C)C)c(O)c(CN(C)C)c3)cc2)cc(CN(C)C)c1O | 60.2 | > 100 | 28.2 | > 100 |  | > 100 | 76 | 94.3 | 26.5 | 78.8 | 98 |  |  |  |  |  | 
CC1=C(C#N)S(=O)(=O)c2c(oc(C)c2C)N1 | > 100 | > 100 |  |  | > 100 | > 100 | > 100 | > 100 | > 100 | > 100 |  |  |  |  |  |  | 
CC(=O)O[C@H]1/C(=C/c2ccc(N(C)C)cc2)C[C@H]2[C@@H]3CC=C4C[C@@H](N5CCCC5)CC[C@]4(C)[C@H]3CC[C@]12C | > 100 |  | > 100 | > 100 |  | > 100 | > 100 | > 100 | > 100 | > 100 | > 100 |  |  |  |  |  | 
COc1ccc(CNc2nc3ccccc3nc2-c2cccs2)cc1 | 95.4 | 46.3 | > 100 | > 100 |  | > 100 |  | > 100 | 43.7 | > 100 | > 100 |  |  |  |  |  | 
O=C1CC(O)c2c(Cl)sc(Cl)c21 (stereo unspecified) | 29.7 | 9.68 | 14.6 | 22.1 | 44.2 | > 59.3 | > 48.6 | 31.5 | 5.24 | 22.9 |  |  |  |  |  |  | 
OC1CN=C2c3ccccc3C(O)(c3ccc(Cl)cc3)N2C1 (stereo unspecified) |  | > 100 | 37.8 | > 100 | > 100 |  | > 100 | > 100 | > 100 | > 100 | > 100 |  |  |  |  |  | 
O=C(c1ccco1)N(C(=S)N1CCN(c2ccccc2)CC1)c1ccccc1 |  | > 100 | > 100 | > 100 |  | > 100 | > 100 | > 100 | > 100 | > 100 | > 100 |  |  |  |  |  | 
O=C1CC(c2cccc(Cl)c2)n2cccc21 (stereo unspecified) |  | > 100 | > 100 |  |  | > 100 | > 100 | > 100 | > 100 | > 100 | 92.7 |  |  |  |  |  | 
CC(Nc1cc(Cl)cc(Cl)c1)c1ccncc1 (stereo unspecified) | 52.7 | 52.4 | 29.8 | 31.8 | 45.6 | 43.4 |  |  | 24.8 | 40.8 |  |  |  |  |  |  | 
COc1cc(C(C#N)NNC(=O)c2ccccc2O)ccc1O (stereo unspecified) |  | > 100 | > 100 | > 100 |  | > 100 | > 100 | 5.22 | > 100 | 8.73 | 19.4 |  |  |  |  |  | 

Compound | TGI (BT-549 breast) [µM] | TGI (CAKI-1 renal) [µM] | TGI (COLO 205 colon) [µM] | TGI (IGROV1 ovarian) [µM] | TGI (MDA-N) [µM] | TGI (SF-295 CNS) [µM] | TGI (SN12C renal) [µM] | TGI (UACC-62 melanoma) [µM] | TGI (LOX IMVI melanoma) [µM] | TGI (SF-539 CNS) [µM] | TGI (HL-60(TB) leukemia) [µM] | GI50 (CAKI-1 renal) [µM] | GI50 (HL-60(TB) leukemia) [µM] | GI50 (IGROV1 ovarian) [µM] | GI50 (LOX IMVI melanoma) [µM] | GI50 (SF-539 CNS) [µM] | GI50 (UACC-62 melanoma) [µM]
O=C(CSc1nc2ccc(I)cc2c(=O)n1Cc1ccccc1)Nc1ccc(Br)cc1 | > 100 | 20.2 | > 100 | > 100 |  | > 100 | > 100 | > 100 | > 100 | 6.1 | > 100 |  |  |  |  |  | 
Cc1cc2ccccc2c[n+]1CC(=O)CC([O-])(C(F)(F)F)C(F)(F)F |  | > 100 | > 100 | > 100 | > 100 | > 100 | > 100 | > 100 | > 100 | > 100 | > 100 |  |  |  |  |  | 
CC1=C(N2CC2)C(=O)c2nc3n(c2C1=O)CCC3O (stereo unspecified) | 0.0377 | 0.777 | 1.33 | 1.2 |  | 0.512 | 2.71 | 0.482 | 1.92 | 0.669 | 8.47 |  |  |  |  |  | 
COC(=O)c1ccc(OCc2ccc3oc(=O)c(-c4ccccc4)nc3c2)cc1 |  | > 100 | > 100 |  |  | > 100 | > 100 |  | > 100 | > 100 | > 100 |  |  |  |  |  | 
COC(=O)C(Cc1ccccc1)NC(=O)CNC(=O)CSc1nnc(COc2ccc(Cl)cc2)n1-c1ccccc1 (stereo unspecified) | 35.6 | 25.3 | 31.9 | 29.1 |  | 31.7 | 32.5 | 28.6 | 13.8 | 34.3 | 13.7 |  |  |  |  |  | 
COC(=O)c1c(O)ccc2c1c1c(n2C)C(=O)c2ccccc2C1=O | 45.8 | 92.5 | > 100 | 21.8 |  | 65.6 | > 100 |  | > 100 | 65.1 | > 100 |  |  |  |  |  | 
CC(NC(=O)C(NC(=O)OC(C)(C)C)C(C)C)C(=O)NCC(=O)O (stereo not drawn) (Boc-Val-Ala-Gly-OH; configuration not given here) | > 100 | > 100 | > 100 | > 100 | > 100 | > 100 | > 100 | > 100 |  | > 100 |  |  |  |  |  |  | 
CCCCCCCCOCC1S(=O)(=O)OCCOS1(=O)=O |  | > 100 | > 100 | > 100 | > 100 | > 100 | > 100 | > 100 | > 100 | > 100 | > 100 |  |  |  |  |  | 
Cc1ccc(-n2c(C)nc3c2C(=O)c2ccccc2C3=O)cc1 |  |  | 41.8 | > 100 |  | > 100 | > 100 | 56.6 | 97.2 | 86.1 | > 100 |  |  |  |  |  | 
CC1(C)CCOC(=O)C(Cl)CC1Cl (stereo unspecified) |  | > 100 | > 100 | > 100 | > 100 | > 100 | > 100 | > 100 | > 100 | > 100 |  |  |  |  |  |  | 
CC(NC(=O)c1ccc(OP(=O)(OCC2=CC(=O)c3ccccc3C2=O)N(C)CCCCCl)cc1)c1ccc(OCC2CCCCC2)c(C(N)=O)c1 (stereo unspecified) |  | 35.5 | 20.6 | 21.6 | 13 | 19.2 | 26.2 | 21.4 | 17.6 | 28.5 | 41.1 |  |  |  |  |  | 
CCCc1ccc(N=Cc2cc(OC)c(OC)c(OC)c2)cc1 |  | > 100 | > 31.6 | > 100 |  | > 100 | > 100 | > 100 | > 100 | > 100 | > 67.5 |  |  |  |  |  | 
CC1=C2N3C[C@@H](n4c(=O)n(C)c(=O)n43)C23CCC1n1c(=O)n(C)c(=O)n13 |  | > 100 | > 100 | > 100 |  | > 100 | > 100 | > 100 | > 100 | > 100 | > 100 |  |  |  |  |  | 
O=C1NC(N2CCOCC2)=N/C1=C\c1ccccc1O |  | > 100 | > 100 | > 100 | > 100 | > 100 | > 100 |  | > 100 | > 100 | > 100 |  |  |  |  |  | 
CC(C)n1c(=O)c2nn3c(=O)n(C(C)C)c(=O)c3nn2c1=O |  | > 100 | > 100 | > 100 | > 100 | > 100 | > 100 | > 100 | > 100 | > 100 | > 100 |  |  |  |  |  | 
COC(=O)CC1C2CC3C(C2=O)C13 (stereo unspecified) |  | > 100 | > 100 | > 100 | > 100 | > 100 | > 100 | > 100 | > 100 | > 100 | > 100 |  |  |  |  |  | 
